Results: patent US20230365566A1, “HETEROCYCLIC AMIDES AND THEIR USE FOR MODULATING SPLICING” (REMIX THERAPEUTICS INC., priority 2020, published 2023)

What was measured:
Assay type in all cases: cell-based
Target C CJ mRNA = assay: Gene panel canonical junction qPCR assay, Target C; conditions: protocol of Example 42, read-out: Target C IC50 (decrease in CJ mRNA levels)
Protocol: (§1) Compounds described herein were used to modulate RNA transcript abundance in cells. The expression of a target mRNA was measured by detecting the formation of an exon-exon junction in the canonical transcript (CJ). A compound mediated exon-inclusion event was detected by observing an increase in formation of a new junction with an alternative exon (AJ). Real-time qPCR assays were used to detect these splicing switches and interrogate the potency of various compounds towards different target genes. A high-throughput real time quantitative PCR (RT-qPCR) assay was developed to measure these two isoforms of the mRNA (CJ and AJ) for an exemplary gene, HTT, together with a control housekeeping gene, GAPDH or GUSB or PPIA, used for normalization. Briefly, the A673 or K562 cell line was treated with various compounds described herein (e.g., compounds of Formula (I)). After treatment, the levels of the HTT mRNA targets were determined from each sample of cell lysate by cDNA synthesis followed by qPCR.
(§2) The A673 cell line was cultured in DMEM with 10% FBS. Cells were diluted with full growth media and plated in a 96-well plate (15,000 cells in 100 ul media per well). The plate was incubated at 37° C. with 5% CO2 for 24 hours to allow cells to adhere. An 11-point 3-fold serial dilution of the compounds was made in DMSO then diluted in media in an intermediate plate. Compounds were transferred from the intermediate plate to the cell plate with the top dose at a final concentration of 10 uM in the well. Final DMSO concentration was kept at or below 0.25%. The cell plate was returned to the incubator at 37° C. with 5% CO2 for an additional 24 hours.
(§3) The K562 cell line was cultured in IMDM with 10% FBS. For K562, cells were diluted with full growth media and plated in either a 96-well plate (50,000 cells in 50 uL media per well) or a 384-well plate (8,000-40,000 cells in 45 uL media per well). An 11-point 3-fold serial dilution of the compounds were made in DMSO then diluted in media in an intermediate plate. Compound was transferred from the intermediate plate to the cell plate with the top dose at a final concentration of 10 uM in the well. Final DMSO concentration was kept at or below 0.25%. Final volume was 100 uL for 96-well plate and 50 uL for 384-well plate. The cell plate was then placed in an incubator at 37° C. with 5% CO2 for 24 hours.
(§4) The data analysis was performed by first determining the ACt vs the housekeeper gene. This ACt was then normalized against the DMSO control (AACt) and converted to RQ (relative quantification) using the 2^(−ΔΔCt) equation. The RQ were then converted to a percentage response by arbitrarily setting an assay window of 3.5 ΔCt for HTT-CJ and an assay window of 9 ΔCt for HTT-AJ. […] The percentage response was then fitted to the 4 parametric logistic equation to evaluate the concentration dependence of compound treatment. The increase in AJ mRNA is reported as AC50 (compound concentration having 50% response in AJ increase) while the decrease in CJ mRNA levels is reported as IC50 (compound concentration having 50% response in CJ decrease).
(§5) Additional studies were carried out for a larger panel of genes using the protocol provided above. The junction between flanking upstream and downstream exons was used to design canonical junction qPCR assays. At least one of the forward primer, reverse primer or the CY5-labeled 5′ nuclease probe (with 3′ quencher such as ZEN/Iowa Black FQ) was designed to overlap with the exon junction to capture the CJ mRNA transcript. BLAST was used to confirm the specificity of the probeset and parameters such as melting temperature, GC content, amplicon size, and primer dimer formation are considered during their design. Data for the decrease in CJ mRNA levels for three exemplary genes (HTT, SMN2, and Target C) analyzed in this panel are reported as IC50 (compound concentration having 50% response in CJ decrease).

SMN2 CJ mRNA = assay: Gene panel canonical junction qPCR assay, SMN2; conditions: protocol of Example 42, read-out: SMN2 IC50 (decrease in CJ mRNA levels)
Protocol: as §1, §2, §3, §4, §5

[1] = test system: HTT mRNA canonical junction (CJ); assay: Splicing RT-qPCR assay, decrease of HTT canonical junction (CJ) mRNA; conditions: A673 or K562 cells, 24 hours compound treatment, concentration having 50% response in CJ decrease
Protocol: as §1, §2, §3
(§6) The cells were then gently washed with 50 uL-100 uL cold PBS before proceeding to addition of lysis buffer. 30 uL-50 uL of room temperature lysis buffer with DNAse I (and optionally RNAsin) was added to each well. Cells were shaken/mixed thoroughly at room temperature for 5-10 minutes for lysis to take place and then 3 uL-5 uL of room temperature stop solution was added and wells were shaken/mixed again. After 2-5 minutes, the cell lysate plate was transferred to ice for RT-qPCR reaction setup. The lysates could also be frozen at −80° C. for later use.
(§7) In some cases, a direct lysis buffer was used. An appropriate volume of 3× lysis buffer (10 mM Tris, 150 mM NaCl, 1.5%-2.5% Igepal and 0.1-1 U/uL RNAsin, pH 7.4) was directly added to either K562 or A673 cells in media and mixed by pipetting 3 times. The plates were then incubated at room temperature with shaking/rocking for 20-50 minutes to allow for lysis to take place. After this time, the cell lysate plate was transferred to ice to set up for the RT-qPCR reactions. The lysates could also be frozen at −80° C. for later use.
(§8) To set up 10 uL RT-qPCR reactions, cell lysates were transferred to 384-well qPCR plates containing the master mix according to the table below. The plates were sealed, gently vortexed, and spun down before the run. The volumes were adjusted accordingly in some instances where the reaction was carried in 20 uL. The table below summarizes the components of the RT-qPCR reactions:
(§9) The RT-qPCR reaction was performed using a QuantStudio (ThermoFisher) under the following fast cycling conditions. […]

[2] = test system: HTT mRNA alternative junction (AJ); assay: Splicing RT-qPCR assay, increase of HTT alternative junction (AJ) mRNA; conditions: A673 or K562 cells, 24 hours compound treatment, concentration having 50% response in AJ increase
Protocol: as §1, §2, §3, §6, §7, §8, §9

HTT CJ mRNA = assay: Gene panel canonical junction qPCR assay, HTT; conditions: protocol of Example 42, read-out: HTT IC50 (decrease in CJ mRNA levels)
Protocol: as §1, §2, §3, §4, §5

Row | Compound | IC50 (Target C CJ mRNA) [nM] | IC50 (SMN2 CJ mRNA) [nM] | IC50 (HTT CJ mRNA) [nM] | AC50 [1] [nM] | AC50 [2] [nM]
1 | Cc1cn2cc(NC(=O)c3ccc(C4CCN(C)CC4)c4cn(C)nc34)cc(F)c2n1 [Compound 209, N-[8-fluoro-2-methylimidazo[1,2-a]pyridin-6-yl]-2-methyl-4-(1-methylpiperidin-4-yl)indazole-7-carboxamide] | 1000 to 10000 | > 10000 | 100 to 1000 | 100 to 1000 | 100 to 1000
2 | CCN1CCC(c2ccc(C(=O)Nc3cc(F)c4nc(C)cn4c3)c3nn(C)cc23)CC1 [Compound 210, 4-(1-ethylpiperidin-4-yl)-N-[8-fluoro-2-methylimidazo[1,2-a]pyridin-6-yl]-2-methylindazole-7-carboxamide] | 1000 to 10000 | < 100 | 100 to 1000 | 100 to 1000 | 100 to 1000
3 | Cc1cn2cc(NC(=O)c3ccc(C4C[C@@H](C)N[C@@H](C)C4)c4cn(C)nc34)cc(F)c2n1 (stereo partly drawn) [Compound 211, 4-[(cis-)-2,6-dimethylpiperidin-4-yl]-N-[8-fluoro-2-methylimidazo[1,2-a]pyridin-6-yl]-2-methylindazole-7-carboxamide trifluoroacetic acid] | > 10000 | < 100 | 1000 to 10000 | 1000 to 10000 | 1000 to 10000
4 | Cc1cn2cc(NC(=O)c3ccc(C4CC(C)(C)NC(C)(C)C4)c4cn(C)nc34)cc(F)c2n1 [Compound 212, N-[8-fluoro-2-methylimidazo[1,2-a]pyridin-6-yl]-2-methyl-4-(2,2,6,6-tetramethylpiperidin-4-yl)indazole-7-carboxamide] | > 10000 | 100 to 1000 | 1000 to 10000 | 1000 to 10000 | > 10000
5 | Cc1cn2cc(NC(=O)c3ccc(N4CCN(C)C(C)C4)c4cn(C)nc34)cc(F)c2n1 (centres unmarked) [Compound 229] | 1000 to 10000 | < 100 | 100 to 1000 | 100 to 1000 | 100 to 1000
6 | Cc1cn2cc(NC(=O)c3ccc(N4CC5(CN(C)C5)C4)c4cn(C)nc34)cc(F)c2n1 [Compound 243] | 1000 to 10000 | < 100 | 100 to 1000 | 100 to 1000 | 100 to 1000
7 | Cc1cn2cc(NC(=O)c3ccc(N(C)C4CC(C)(C)NC(C)(C)C4)c4cn(C)nc34)cc(F)c2n1 [Compound 244] | > 10000 | 100 to 1000 | > 10000 | > 10000 | > 10000
8 | Cc1cn2cc(NC(=O)c3ccc(N(C)C4CCN(C)CC4)c4cn(C)nc34)cc(F)c2n1 [Compound 245] | 100 to 1000 | < 100 | 100 to 1000 | 100 to 1000 | 100 to 1000
9 | Cc1cn2cc(NC(=O)c3ccc(N4CCC(NC(C)(C)C)C4)c4cn(C)nc34)cc(F)c2n1 (centres unmarked) [Compound 249] | > 10000 | < 100 | > 10000 | > 10000 | > 10000

Continued, in another order:

Row | IC50 (Target C CJ mRNA) [nM] | IC50 (SMN2 CJ mRNA) [nM] | IC50 (HTT CJ mRNA) [nM] | Compound | AC50 [1] [nM] | AC50 [2] [nM]
10 | > 10000 | 1000 to 10000 | 1000 to 10000 | Cc1cc2c(N3CCNCC3)ccc(C(=O)Nc3cc(F)c4cn(C)nc4c3)c2o1 [Compound 217, N-(4-fluoro-2-methylindazol-6-yl)-2-methyl-4-(piperazin-1-yl)-1-benzofuran-7-carboxamide] | 1000 to 10000 | 1000 to 10000
11 | 100 to 1000 | < 100 | 100 to 1000 | Cc1cn2cc(NC(=O)c3ccc(N4CCNC(C)C4)c4cn(C)nc34)cc(F)c2n1 (centres unmarked) [Compound 228] | 100 to 1000 | 100 to 1000
12 | > 10000 | > 10000 | > 10000 | Cn1cc2ccc(NC(=O)c3ccc(N4CCNCC4)c4cn(C)nc34)cc2n1 [Compound 230] | > 10000 | > 10000
13 | > 10000 | > 10000 | > 10000 | Cn1cc2c(F)cc(NC(=O)c3ccc(N4CCNCC4)c4cn(C)nc34)cc2n1 [Compound 231] | > 10000 | > 10000
14 | 1000 to 10000 | < 100 | 1000 to 10000 | Cc1nc2c(F)cc(NC(=O)c3ccc(N4CCNCC4)c4cn(C)nc34)cc2o1 [Compound 234] | 1000 to 10000 | 100 to 1000
15 | > 10000 | < 100 | 1000 to 10000 | Cc1nc2c(F)cc(NC(=O)c3ccc(N4CCNCC4)c4cn(C)nc34)cc2s1 [Compound 235] | 1000 to 10000 | 1000 to 10000
16 | > 10000 | < 100 | 1000 to 10000 | Cc1cn2cc(NC(=O)c3ccc(N4CCNCC4)c4cn(C)nc34)cc(C)c2n1 [Compound 238] | 1000 to 10000 | 1000 to 10000
17 | 1000 to 10000 | < 100 | 100 to 1000 | CCC1CN(c2ccc(C(=O)Nc3cc(F)c4nc(C)cn4c3)c3nn(C)cc23)CCN1 (centres unmarked) [Compound 239] | 100 to 1000 | 100 to 1000
18 | 1000 to 10000 | < 100 | 100 to 1000 | Cc1cn2cc(NC(=O)c3ccc(N4CCNC(C)(C)C4)c4cn(C)nc34)cc(F)c2n1 [Compound 240] | 100 to 1000 | 100 to 1000
19 | 1000 to 10000 | < 100 | 1000 to 10000 | Cc1cn2cc(NC(=O)c3ccc(N4CCNC5(CC5)C4)c4cn(C)nc34)cc(F)c2n1 [Compound 241] | 1000 to 10000 | 1000 to 10000
20 | 1000 to 10000 | < 100 | 100 to 1000 | Cc1cn2cc(NC(=O)c3ccc(N4CC5(CNC5)C4)c4cn(C)nc34)cc(F)c2n1 [Compound 242] | 100 to 1000 | 1000 to 10000
21 | > 10000 | < 100 | 1000 to 10000 | Cc1cn2cc(NC(=O)c3ccc(N4CCNCC4)c4cn(C)nc34)ncc2n1 [Compound 246] | 1000 to 10000 | 1000 to 10000
22 | > 10000 | > 10000 | > 10000 | Cc1cn2nc(NC(=O)c3ccc(N4CCNCC4)c4cn(C)nc34)cc2c(C)n1 [Compound 247] | > 10000 | > 10000
